According to patent US8815814B2, “Cosmetic composition containing oligopeptides” (Cognis IP Management GmbH, priority 2010, dated 2014):
Residues, ends and D or L forms follow the SMILES beside them.

How the values were obtained:
[1] = tested on: collagen type I; test: Collagen type I immuno-staining (ICC) in cultured human dermal fibroblasts; type: cell-based; settings: peptide at 5.1 μg/ml; for % of staining occupation (collagen type I immuno-staining): human dermal fibroblasts, 72 hours incubation, sodium ascorbyl at 20 μg/ml, control 10.68 +/− 1, mean +/− SEM, 6 measures
Experimental: The peptide Acetyl-Val-Leu-Leu-Lys (SEQ ID NO:1)was incubated on human dermal fibroblasts cultured in vitro and the expression of the collagen type I was measured using an immunocytochemistry (ICC) method.
The human dermal fibroblasts were cultured within growth medium enriched with Foetal Calf Serum (FCS) at 10% and incubated for 2 days at 37° C. Then the growth medium was exchanged for a standard medium containing sodium ascorbyl at 5 μg/ml with FCS at 1% and with or without the Acetyl-Val-Leu-Leu-Lys (SEQ ID NO:1)peptide at 5.1 μg/ml. A positive control condition with sodium ascorbyl at 20 μg/ml was performed. Cells were incubated for 72 hours at 37° C. with the peptide. Cultured human dermal fibroblasts were fixed by acetone for 10 minutes at −20° C. and incubated for 1 hour at room temperature with a primary antibody against collagen type I [Abcam] diluted at 1/250. Fluorescein isothiocyanate (FITC) labelled secondary antibody [CliniSciences, France] was used for revelation. The obtained immuno-staining was observed using a confocal laser scanning microscope [TCS SPE, Leica, France] and quantified by an image analyzer [Quantimet Q5001W, Leica, France]. The staining occupation was evaluated. The results were presented as a mean +/−SEM (Standard Error of Mean) from 6 measures.

[2] = tested on: glutaredoxin-2 gene (GLRX2); test: GLRX2 mRNA level by qRT-PCR in human dermal fibroblasts; type: cell-based; settings: peptide at 1.0 μg/ml, 6 hours
Experimental: The peptide Acetyl-Val-Leu-Leu-Lys (SEQ ID NO:1) was incubated on human dermal fibroblasts cultured in vitro and the expression of the glutaredoxin-2 gene (GLRX2), involved in cellular anti-oxidative defenses) was measured using a qRT-PCR method.
The human dermal fibroblasts were cultured within growth medium enriched with FCS at 10% and incubated for 1 day at 37° C. Then the growth medium was exchanged for a standard medium without FCS with or without the Acetyl-Val-Leu-Leu-Lys (SEQ ID NO:1) peptide at 1.0 μg/ml. Cells were incubated for 6 hours at 37° C. before extraction of total RNA. The level of GLRX2 mRNAs was evaluated comparatively to the level of HPRT1 (hypoxanthine phosphoribosyltransferase 1) mRNA as housekeeping gene (qRT-PCR method) for each condition.
The results were calculated through the level of GLRX2 mRNA measured in the control condition (without peptide treatment) as 100% and presented as a mean +/−SEM from 3 assays in duplicated.

[3] = tested on: tropoelastin gene (ELN); test: ELN mRNA level by qRT-PCR in human dermal fibroblasts; type: cell-based; settings: peptide at 1.0 μg/ml; for level of ELN mRNA (control = 100%): vs EEF1A1 housekeeping gene, mean +/− SEM
Experimental: The peptide Acetyl-Val-Leu-Leu-Lys (SEQ ID NO:1) was incubated on human dermal fibroblasts cultured in vitro and the expression of the tropoelastin gene (ELN) was measured using a qRT-PCR method.
The human dermal fibroblasts were cultured within growth medium enriched with FCS at 10% and incubated for 1 day at 37° C. Then the growth medium was exchanged for a standard medium without FCS but with or without the Acetyl-Val-Leu-Leu-Lys (SEQ ID NO:1) peptide at 1.0 μg/ml. Cells were incubated for 24 hours, 48 hours or 72 hours at 37° C. before extraction of total RNA. The level of ELN mRNAs in the different conditions was evaluated comparatively to the level of EEF1A 1 mRNA as housekeeping gene (qRT-PCR method) for each condition. The results were calculated through the level of ELN mRNA measured in the control condition (without peptide treatment) as 100% and presented as a mean+/−SEM from 3 assays in duplicate.

[4] = tested on: collagen type XIV gene (COL14A1); test: COL14A1 mRNA level by qRT-PCR in human dermal fibroblasts; type: cell-based; settings: peptide at 1.0 μg/ml; for level of COL14A1 mRNA (control = 100%): vs EEF1A1 housekeeping gene, mean +/− SEM
Experimental: The peptide Acetyl-Val-Leu-Leu-Lys (SEQ ID NO:1) was incubated on human dermal fibroblasts cultured in vitro and the expression of the collagen type XIV gene (COL14A1) was measured using a quantitative reverse-transcription and polymerase chain reaction (qRT-PCR) method.
The human dermal fibroblasts were cultured within growth medium enriched with FCS at 10% and incubated for 1 day at 37° C. Then the growth medium was exchanged for a standard medium without FCS but with or without the Acetyl-Val-Leu-Leu-Lys (SEQ ID NO:1) peptide at 1.0 μg/ml. Cells were then incubated for 24 hours, 48 hours or 72 hours at 37° C. before extraction of total RNA. The level of COL14A1 mRNAs in the different conditions was evaluated comparatively to the level of EEF1A1 mRNA as housekeeping gene (qRT-PCR method) for each condition.
The results were calculated through the level of COL14A1 mRNA measured in the control condition (without peptide treatment) for the different incubation times as 100% and presented as a mean+/−SEM from 3 or 5 assays in duplicate.

[5] = tested on: injured rabbit cornea; settings: Hara et al., Exp Eye Res, 2001; cited from earlier work
[6] = tested on: epithelial cells from rabbit cornea; settings: Hara et al., Exp Eye Res, 2001; cited from earlier work

Compound | % of staining occupation (collagen type I immuno-staining) [1] | effect on the level of GLRX2 gene expression (in words) [2] | level of GLRX2 mRNA (control = 100%) ([2]; vs HPRT1 housekeeping gene, mean +/− SEM) | effect on the level of collagen type I (in words) ([1]; compared with sodium ascorbyl at 20 μg/ml) | effect on the level of ELN gene expression (in words) [3] | level of ELN mRNA (control = 100%) ([3]; treatment duration 24 hours) | level of ELN mRNA (control = 100%) ([3]; treatment duration 48 hours) | level of ELN mRNA (control = 100%) ([3]; treatment duration 72 hours) | level of COL14A1 mRNA (control = 100%) ([4]; treatment duration 24 hours) | level of COL14A1 mRNA (control = 100%) ([4]; treatment duration 48 hours) | level of COL14A1 mRNA (control = 100%) ([4]; treatment duration 72 hours) | effect on the level of COL14A1 gene expression (in words) ([4]; detected after 24 hours, maintained during 3 days) | wound healing activity on injured rabbit cornea (in words) [5] | proliferation of epithelial cells from rabbit cornea (in words) [6]
Sodium ascorbyl [reference compound] | 18.01 +/− 1.07 (**) % |  |  |  |  |  |  |  |  |  |  |  |  | 
CC(=O)N[C@H](C(=O)N[C@@H](CC(C)C)C(=O)N[C@@H](CC(C)C)C(=O)N[C@@H](CCCCN)C(=O)O)C(C)C [Acetyl-Val-Leu-Leu-Lys, N-Acetyl-Val-Leu-Leu-Lys-OH] (Ac-VLLK-OH) | 31.07 +/− 2.22 (**) % | specifically increased | 145 +/− 20 (*) % | significantly increased | specifically and significantly increased | 127 +/− 11 (*) % | 143 +/− 10 (*) % | 217 +/− 49 (*) % | 175 +/− 23 (*) % | 220 +/− 32 (*) % | 213 +/− 27 (*) % | specifically and significantly increased |  | 
Val-Leu-Leu-His (VLLH; tetrapeptide) |  |  |  |  |  |  |  |  |  |  |  |  | significant wound healing activity | stimulate proliferation
